*1 amine or outer side, *2 acyl side, *3 side chain or, on linkers, in order; H or OH if unused. Where a SMILES comes first, the peptide text is derived from it. Bridges are numbered along the chain shown (N, C = ends). [ ]: non-standard residue; d: D form. The star is where a group is joined. X3 = O=C(O)CN1CCN(CC(=O)O)CCN(CC(=O)NCCCOCCOCCOCCCN*)CCN(CC(=O)O)CC1; NH(1-deoxy-D-glucityl) = OC[C@@H](O)[C@@H](O)[C@H](O)[C@@H](O)CN*; DOTA = O=C(O)CN1CCN(CC(=O)O)CCN(CC(=O)*)CCN(CC(=O)O)CC1; Trp(5-Cl) = N[C@@H](Cc1c[nH]c2ccc(Cl)cc12)C(=O)O; Pyridine(2,6-diCH2) = c1cc(C[*:1])nc(C[*:2])c1; Pro(4R-NH2) = N[C@H]1CN[C@H](C(=O)O)C1; Glutaryl = O=C(CCCC(=O)[*:2])[*:1]; X7 = c1cc(CSCCN[*:2])cc(C[*:1])c1; X1 = O=C(CN1CCC(N[*:1])CC1)[*:2]; Suc = O=C(CCC(=O)[*:2])[*:1]; hSer = N[C@@H](CCO)C(=O)O; Api = NC1(C(=O)O)CCNCC1
The compounds below were run against T1, GIPR (CHO-K1-hGIPR cells) (Homo sapiens, UniProt P48546) (assay: FACS binding assay). Conditions: competition with 20 nM GIP-057, 4° C., 1 hour, read-out: pIC50 Category (converted).
T1 construct: host or cells: CHO-K1
T1 sequence (P48546 22-466): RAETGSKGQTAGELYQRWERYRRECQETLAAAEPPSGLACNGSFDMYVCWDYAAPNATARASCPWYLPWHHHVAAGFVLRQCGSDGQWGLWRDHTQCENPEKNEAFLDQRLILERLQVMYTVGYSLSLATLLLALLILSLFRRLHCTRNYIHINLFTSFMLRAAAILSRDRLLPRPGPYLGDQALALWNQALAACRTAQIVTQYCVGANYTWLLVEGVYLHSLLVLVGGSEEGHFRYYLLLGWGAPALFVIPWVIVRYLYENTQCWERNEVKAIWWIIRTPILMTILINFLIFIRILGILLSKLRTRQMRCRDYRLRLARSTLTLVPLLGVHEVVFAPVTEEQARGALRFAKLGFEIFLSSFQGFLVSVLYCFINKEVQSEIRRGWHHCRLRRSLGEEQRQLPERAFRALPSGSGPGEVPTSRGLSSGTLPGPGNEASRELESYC
In short: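 Read-out: flow cytometric median fluorescence intensity, APC/Cy5 channel, plotted vs peptide conc.; 4PL fit → EC50/pEC50 or IC50/pIC50. Cells: CHO-K1-hGIPR, Accutase-detached, 500.000/mL in PBS + 1% FCS. Detection: APC-streptavidin 1 μg/mL, 30 min, on ice.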

| IC50 [nM] | Structure (SMILES) |
| --- | --- |
| 10 to 79.4 | CC[C@H](C)[C@@H]1NC(=O)[C@H](CC(C)C)NC(=O)C2(CCN(C(=O)CN3CCN(CC(=O)O)CCN(CC(=O)O)CCN(CC(=O)O)CC3)CC2)NC(=O)[C@@H](NC(=O)[C@@H](CC(C)C)NC(=O)[C@H](CCC(=O)O)NC(=O)[C@@H]2C[C@@H](N)CN2C(=O)[C@H](Cc2c[nH]c3ccc(Cl)cc23)NC(=O)[C@H](Cc2c[nH]c3ccccc23)NC(=O)[C@H](CCO)NC(=O)CN2CCC(NC(=O)CCCC(=O)NC[C@H](O)[C@@H](O)[C@H](O)[C@H](O)CO)CC2)CSCc2cccc(n2)CSC[C@@H](C(=O)NC2CCN(CC(=O)N[C@H](CCC(=O)NC[C@H](O)[C@@H](O)[C@H](O)[C@H](O)CO)C(N)=O)CC2)NC1=O [GIP-050, AGLU-Glutar-APAc-Hse-Trp-5Clw-Tap-Glu-leu-[Cys(2Lut)-Apc(DOTA)-Leu-Ile-Cys]-APAc-glu(AGLU)-NH] ({NH(1-deoxy-D-glucityl)-Glutaryl}-[X1][hSer]W[Trp(5-Cl)][Pro(4R-NH2)]E[dL]C[Api](DOTA)LIC[X1][dE](NH(1-deoxy-D-glucityl))-NH2; linker 8-12 via Pyridine(2,6-diCH2)) |
| 10 to 79.4 | CC[C@H](C)[C@@H]1NC(=O)[C@H](CC(C)C)NC(=O)C2(CCN(C(=O)CN3CCN(CC(=O)O)CCN(CC(=O)O)CCN(CC(=O)O)CC3)CC2)NC(=O)[C@@H](NC(=O)[C@@H](CC(C)C)NC(=O)[C@H](CCC(=O)O)NC(=O)[C@@H]2C[C@@H](N)CN2C(=O)[C@H](Cc2c[nH]c3ccc(Cl)cc23)NC(=O)[C@H](Cc2c[nH]c3ccccc23)NC(=O)[C@H](CC(=O)O)NC(=O)CCCC(=O)NC[C@H](O)[C@@H](O)[C@H](O)[C@H](O)CO)CSCc2cccc(n2)CSC[C@@H](C(=O)NC2CCN(CC(=O)N[C@H](CCC(=O)NC[C@H](O)[C@@H](O)[C@H](O)[C@H](O)CO)C(N)=O)CC2)NC1=O [GIP-051, AGLU-Glutar-Asp-Trp-5Clw-Tap-Glu-leu-[cys(2Lut)-Apc(DOTA)-Leu-Ile-Cys]-APAc-glu(AGLU)-NH2] ({NH(1-deoxy-D-glucityl)-Glutaryl}-DW[Trp(5-Cl)][Pro(4R-NH2)]E[dL]C[Api](DOTA)LIC[X1][dE](NH(1-deoxy-D-glucityl))-NH2; linker 7-11 via Pyridine(2,6-diCH2)) |
| 10 to 79.4 | CC[C@H](C)[C@@H]1NC(=O)[C@H](CC(C)C)NC(=O)C2(CCN(C(=O)CN3CCN(CC(=O)O)CCN(CC(=O)O)CCN(CC(=O)O)CC3)CC2)NC(=O)[C@@H](NC(=O)[C@@H](CC(C)C)NC(=O)[C@H](CCC(=O)O)NC(=O)[C@@H]2C[C@@H](N)CN2C(=O)[C@H](Cc2c[nH]c3ccc(Cl)cc23)NC(=O)[C@H](Cc2c[nH]c3ccccc23)NC(=O)[C@H](CC(=O)O)NC(=O)CCCC(=O)NC[C@H](O)[C@@H](O)[C@H](O)[C@H](O)CO)CSCc2cccc(n2)CSC[C@@H](C(=O)NC2CCN(CC(=O)N[C@H](CCC(=O)NC[C@H](O)[C@@H](O)[C@H](O)[C@H](O)CO)C(N)=O)CC2)NC1=O [GIP-052, AGLU-Glutar-Asp-Trp-5Clw-Tap-Glu-leu-[cys(2Lut)-Apc(DOTA)-Leu-Ile-cys]-APAc-glu(AGLU)-NH2] ({NH(1-deoxy-D-glucityl)-Glutaryl}-DW[Trp(5-Cl)][Pro(4R-NH2)]E[dL]C[Api](DOTA)LIC[X1][dE](NH(1-deoxy-D-glucityl))-NH2; linker 7-11 via Pyridine(2,6-diCH2)) |
| < 10 | CC[C@H](C)[C@@H]1NC(=O)[C@H](CC(C)C)NC(=O)C2(CCN(C(=O)CN3CCN(CC(=O)O)CCN(CC(=O)O)CCN(CC(=O)O)CC3)CC2)NC(=O)[C@@H](NC(=O)[C@@H](CC(C)C)NC(=O)[C@H](CCC(=O)O)NC(=O)[C@@H]2CCCN2C(=O)[C@H](Cc2c[nH]c3ccc(Cl)cc23)NC(=O)[C@H](Cc2c[nH]c3ccccc23)NC(=O)[C@H](CC(=O)O)NC(=O)CCC(=O)NCCCOCCOCCOCCCNC(=O)CN2CCN(CC(=O)O)CCN(CC(=O)O)CCN(CC(=O)O)CC2)CSCc2cccc(c2)CSCCNC1=O [GIP-053, DOTA-Ttds-Asp-Trp-5Clw-Pro-Glu-leu-[Cys(3MeBn)-Apc(DOTA)-Leu-Ile-AET]] ({X3-Suc}-DW[Trp(5-Cl)]PE[dL]C[Api](DOTA)LI; linker 7-C via X7) |

Source: patent publication US20250296971A1, “GASTRIC INHIBITORY PEPTIDE RECEPTOR LIGANDS” (priority 2021, published 2025)
